Assays:
Assay type in all cases: in vivo, mouse
fasted Balb/c mice = assay: Fasting-induced muscle atrophy; conditions: 10 mg/kg oral
Description: Wild type eight-weeks-old male Balb/c mice obtained from the vivarium Fundacion Ciencia & Vida Chile (Santiago, Chile) were used. Mice were housed in independent plastic cages in a room maintained at 25° C. with a 12-h:12-h light:dark cycle.
Twenty-four hours before and during the 2 days of fasted procedures, animals received oral administration via feeding tubes (15 gauge) of vehicle (50% Polyethylene glycol 400 (Sigma-Aldrich P3265) in distilled water or 10 mg/kg of compound 3 formulated in vehicle solution.
After 2 days of fasting the animals were sacrificed and muscles were removed from both hindlimbs. Mice with feed and water ad libitum were used as control.
For in vivo measurements of protein synthesis, puromycin (Sigma-Aldrich, P8833) was prepared at 0.04 μmol/g body weight in a volume of 200 μL of PBS, and subsequently administered into the animals via IP injection, 30 min prior to muscle collection.
(§1) Upon collection, muscles were immediately frozen in liquid nitrogen and then stored at −80° C. […] Protein concentration in supernatants was determined using BCA Protein Assay Kit (Pierce). […]
(§2) Puromycin (12D10) (Merck Millipore) and β-actin (Sigma-Aldrich) antibodies were used as primary antibodies. […] Quantification of protein bands was done by densitometry using ImageJ software. […]

[1] = test system: Balb/c mice with immobilized hindlimb; assay: Immobilization-induced muscle atrophy; conditions: 10 mg/kg oral, 3 days immobilization
Description: Wild type eight-weeks-old male Balb/c mice obtained from the vivarium Fundacion Ciencia & Vida Chile (Santiago, Chile) were used. Mice were housed in independent plastic cages, fed ad libitum in a room maintained at 25° C. with a 12-h:12-h light:dark cycle.
Twenty-four hours before and during the 3 days of immobilization procedures, animals received oral administration via feeding tubes (15 gauge) of vehicle (50% Polyethylene glycol 400 (Sigma-Aldrich P3265) in distilled water or 10 mg/kg of compound 3 formulated in vehicle.
One hindlimb was immobilized with a plastic stick placed over and under the limb and fixed with a medical adhesive bandage. Animals were daily monitored. The immobilization procedure prevented movement of the immobilized leg alone. After 3 days, the animals were sacrificed and gastrocnemius, quadriceps and tibialis anterior muscles were removed from both hindlimbs, the contralateral, non-immobilized leg being used as an internal control. […]
as §1, §2

C57Bl/6J mice with TBI = assay: Learning memory, long-term memory and social behavior after traumatic brain injury (TBI)
From the text: Wild type three-month-old male C57Bl/6J mice were randomly assigned to TBI or sham surgeries. Animals were anesthetized and maintained at 2% isoflurane and secured to a stereotaxic frame with nontraumatic ear bars. The hair on their scalp was removed, and eye ointment and betadine were applied to their eyes and scalp, respectively. A midline incision was made to expose the skull. A unilateral TBI was induced in the right parietal lobe using the controlled cortical impact model (Nat Neurosci. 2014 August; 17(8): 1073-82). Mice received a 3.5-mm diameter craniectomy, a removal of part of the skull, using an electric microdrill. The coordinates of the craniectomy were: anteroposterior, −2.00 mm and mediolateral, +2.00 mm with respect to bregma. After the craniectomy, the contusion was induced using a 3-mm convex tip attached to an electromagnetic impactor (Leica). The contusion depth was set to 0.95 mm from dura with a velocity of 4.0 m/s sustained for 300 ms. These injury parameters were chosen to target, but not penetrate, the hippocampus. Sham animals received craniectomy surgeries but without the focal injury. After focal TBI surgery, the scalp was sutured and the animal was allowed to recover in an incubation chamber set to 37° C. Animals were returned to their home cage after showing normal walking and grooming behavior.
After 28 days post injury (dpi), animals were tested on the RAWM assay (see above). Animals ran 12 trials during learning test and 4 trials during memory test. Last three trials from learning test and all four trials from memory test were averaged to determine learning memory (learning test) and long-term memory (memory test). […]
To quantitate social tendencies of the treated mice, the time spent with a novel conspecific mouse was measured in a Crawley's three-chamber box (J Vis Exp. 2011; (48): 2473). […] The time spent with the never-before-met animal was recorded. Direct contact between the treated mouse and the housing cage or stretching of the body of the subject mouse in an area 3-5 cm around the housing cage is counted as an active contact.

O=C(COc1ccc(Cl)cc1)N[C@H]1CC[C@H](NC[C@@H](O)COc2ccc(Cl)cc2)CC1 (single isomer, unassigned) [Compound 3, (+)-2-(4-chlorophenoxy)-N-(4-((3-(4-chlorophenoxy)-2-hydroxypropyl)amino)cyclohexyl)acetamide]
protein synthesis, puromycin staining in muscle fiber CSA (fasted Balb/c mice): partial recovery of protein synthesis | protein synthesis in immobilized hindlimb muscle ([1]; gastrocnemius): partial recovery of protein synthesis | protein synthesis in immobilized hindlimb muscle ([1]; tibialis anterior and quadriceps): complete recovery of protein synthesis | learning memory, number of errors in RAWM (C57Bl/6J mice with TBI; 5 mg/kg intraperitoneally, 28-29 dpi, versus vehicle): made significantly less errors over the course of training | long-term memory, RAWM (C57Bl/6J mice with TBI; 35 dpi, 7 days after training, versus vehicle): a similar trend was seen | social behavior, time spent with the novel mouse (C57Bl/6J mice with TBI; 42 dpi, Crawley's three-chamber box): spent more time with the novel mouse at levels similar to those animals from sham group

From patent US11230542B2, “Inhibitors of integrated stress response pathway” (Praxis Biotech LLC, priority 2017, dated 2022)
